Results: ChEMBL document CHEMBL2413072, “Synthesis and in vitro anticancer studies of novel C-2 arylidene congeners of lantadenes” (2013)

Columns and labels:
Assay type in all cases: functional
OVCAR-3 [1] = test: Growth inhibition of human OVCAR3 cells assessed as cell growth at 10^-4 M by sulforhodamine B assay; conditions: read-out: Activity
SF-295 = test: Growth inhibition of human SF295 cells assessed as cell growth at 10^-8 M by sulforhodamine B assay; conditions: read-out: Activity
OVCAR-5 = test: Growth inhibition of human OVCAR5 cells assessed as cell growth at 10^-7 M by sulforhodamine B assay; conditions: read-out: Activity
CCRF-CEM [2] = test: Growth inhibition of human CCRF-CEM cells by sulforhodamine B assay
SNB-19 = test: Growth inhibition of human SNB19 cells by sulforhodamine B assay
HCT-15 [3] = test: Growth inhibition of human HCT15 cells assessed as cell growth at 10^-4 M by sulforhodamine B assay; conditions: read-out: Activity
HCT-15 [4] = test: Growth inhibition of human HCT15 cells by sulforhodamine B assay
HL-60(TB) = test: Growth inhibition of human HL-60(TB) cells assessed as cell growth at 10^-6 M by sulforhodamine B assay; conditions: read-out: Activity
MOLT-4 [5] = test: Growth inhibition of human MOLT4 cells assessed as cell growth at 10^-6 M by sulforhodamine B assay; conditions: read-out: Activity
CCRF-CEM [6] = test: Growth inhibition of human CCRF-CEM cells assessed as cell growth at 10^-7 M by sulforhodamine B assay; conditions: read-out: Activity
Malme-3M = test: Growth inhibition of human MALME-3M cells assessed as cell growth at 10^-7 M by sulforhodamine B assay; conditions: read-out: Activity
OVCAR-3 [7] = test: Growth inhibition of human OVCAR3 cells assessed as cell growth at 10^-8 M by sulforhodamine B assay; conditions: read-out: Activity
SK-MEL-2 = test: Growth inhibition of human SK-MEL-2 cells assessed as cell growth at 10^-7 M by sulforhodamine B assay; conditions: read-out: Activity
M14 [8] = test: Growth inhibition of human M14 cells assessed as cell growth at 10^-8 M by sulforhodamine B assay; conditions: read-out: Activity
T47D = test: Growth inhibition of human T47D cells assessed as cell growth at 10^-4 M by sulforhodamine B assay; conditions: read-out: Activity
LOX IMVI = test: Growth inhibition of human LOXIMVI cells assessed as cell growth at 10^-8 M by sulforhodamine B assay; conditions: read-out: Activity
BT-549 [9] = test: Growth inhibition of human BT549 cells assessed as cell growth at 10^-6 M by sulforhodamine B assay; conditions: read-out: Activity
MOLT-4 [10] = test: Growth inhibition of human MOLT4 cells assessed as cell growth at 10^-7 M by sulforhodamine B assay; conditions: read-out: Activity
CCRF-CEM [11] = test: Growth inhibition of human CCRF-CEM cells assessed as cell growth at 10^-6 M by sulforhodamine B assay; conditions: read-out: Activity
SF-539 = test: Growth inhibition of human SF539 cells assessed as cell growth at 10^-6 M by sulforhodamine B assay; conditions: read-out: Activity
SN12C = test: Growth inhibition of human SN12C cells assessed as cell growth at 10^-4 M by sulforhodamine B assay; conditions: read-out: Activity
NCI-H460 = test: Growth inhibition of human NCI-H460 cells assessed as cell growth at 10^-6 M by sulforhodamine B assay; conditions: read-out: Activity
[12] = Growth inhibition of human HCC2998 cells assessed as cell growth at 10^-4 M by sulforhodamine B assay; conditions: HCC 2998, read-out: Activity
RXF 393 = test: Growth inhibition of human RXF393 cells assessed as cell growth at 10^-8 M by sulforhodamine B assay; conditions: read-out: Activity
HCT-116 = test: Growth inhibition of human HCT116 cells by sulforhodamine B assay
U-251 = test: Growth inhibition of human U251 cells assessed as cell growth at 10^-7 M by sulforhodamine B assay; conditions: read-out: Activity
786-0 [13] = test: Growth inhibition of human 786-0 cells by sulforhodamine B assay
M14 [14] = test: Growth inhibition of human M14 cells by sulforhodamine B assay
COLO 205 [15] = test: Growth inhibition of human COLO205 cells assessed as cell growth at 10^-6 M by sulforhodamine B assay; conditions: read-out: Activity
IGROV-1 = test: Growth inhibition of human IGROV1 cells assessed as cell growth at 10^-6 M by sulforhodamine B assay; conditions: read-out: Activity
NCI-H522 = test: Growth inhibition of human NCI-H522 cells assessed as cell growth at 10^-4 M by sulforhodamine B assay; conditions: read-out: Activity
SK-MEL-5 = test: Growth inhibition of human SK-MEL-5 cells assessed as cell growth at 10^-8 M by sulforhodamine B assay; conditions: read-out: Activity
BT-549 [16] = test: Growth inhibition of human BT549 cells assessed as cell growth at 10^-7 M by sulforhodamine B assay; conditions: read-out: Activity
MDA-MB-231 = test: Growth inhibition of human MDA-MB-231 cells by sulforhodamine B assay
COLO 205 [17] = test: Growth inhibition of human COLO205 cells by sulforhodamine B assay
CAKI-1 = test: Growth inhibition of human CAKI-1 cells by sulforhodamine B assay
HOP-62 [18] = test: Growth inhibition of human HOP62 cells assessed as cell growth at 10^-4 M by sulforhodamine B assay; conditions: read-out: Activity
HOP-62 [19] = test: Growth inhibition of human HOP62 cells assessed as cell growth at 10^-8 M by sulforhodamine B assay; conditions: read-out: Activity
786-0 [20] = test: Growth inhibition of human 786-0 cells assessed as cell growth at 10^-8 M by sulforhodamine B assay; conditions: read-out: Activity
[21] = read-out: LC50 (the source's name)
[22] = read-out: pLC50 (the source's name) (converted)

## C/C=C(/C)C(=O)O[C@@H]1CC(C)(C)C[C@H]2C3=CC[C@@H]4[C@@]5(C)CC[C@H](O)C(C)(C)[C@@H]5CC[C@@]4(C)[C@]3(C)CC[C@@]12C(=O)O [Reduced Lantadene A]
OVCAR-3 [1]
  growth at 100 µM: -48%
SF-295
  growth at 0.01 µM: 93%
OVCAR-5
  growth at 0.1 µM: 103%
CCRF-CEM [2]; read-out: GI50
  GI50: 2.31 µM
CCRF-CEM [2]; [21]
  CC50: > 100 µM
CCRF-CEM [2]; read-out: TGI
  TGI: 6.52 µM
CCRF-CEM [2]; read-out: pGI50 (converted)
  GI50: 2.29 µM
CCRF-CEM [2]; [22]
  CC50: > 100 µM
CCRF-CEM [2]; read-out: pTGI (converted)
  TGI: 6.46 µM
SNB-19; read-out: GI50
  GI50: 1.65 µM
SNB-19; read-out: TGI
  TGI: 3.37 µM
SNB-19; read-out: pGI50 (converted)
  GI50: 1.66 µM
SNB-19; read-out: pTGI (converted)
  TGI: 3.39 µM
HCT-15 [3]
  growth at 100 µM: -64%
HCT-15 [4]; read-out: GI50
  GI50: 2.58 µM
HCT-15 [4]; read-out: LC50
  LC50 (50% lethal concentration): 62.6 µM
HCT-15 [4]; read-out: TGI
  TGI: 11.5 µM
HCT-15 [4]; read-out: pGI50 (converted)
  GI50: 2.57 µM
HCT-15 [4]; read-out: pLC50 (converted)
  LC50 (50% lethal concentration): 63.1 µM
HCT-15 [4]; read-out: pTGI (converted)
  TGI: 11.5 µM
HL-60(TB)
  growth at 1 µM: 99%
MOLT-4 [5]
  growth at 1 µM: 89%
CCRF-CEM [6]
  growth at 0.1 µM: 100%
Malme-3M
  growth at 0.1 µM: 94%
OVCAR-3 [7]
  growth at 0.01 µM: 106%
SK-MEL-2
  growth at 0.1 µM: 106%
M14 [8]
  growth at 0.01 µM: 100%
T47D
  growth at 100 µM: -36%
LOX IMVI
  growth at 0.01 µM: 97%
BT-549 [9]
  growth at 1 µM: 95%
MOLT-4 [10]
  growth at 0.1 µM: 98%
CCRF-CEM [11]
  growth at 1 µM: 90%
SF-539
  growth at 1 µM: 101%
SN12C
  growth at 100 µM: -51%
NCI-H460
  growth at 1 µM: 89%
[12]
  growth at 100 µM: -58%
RXF 393
  growth at 0.01 µM: 93%
HCT-116; read-out: GI50
  GI50: 2.45 µM
HCT-116; read-out: LC50
  LC50: 65 µM
HCT-116; read-out: TGI
  TGI: 10.1 µM
HCT-116; read-out: pGI50 (converted)
  GI50: 2.45 µM
HCT-116; read-out: pLC50 (converted)
  LC50: 64.6 µM
HCT-116; read-out: pTGI (converted)
  TGI: 10.2 µM
U-251
  growth at 0.1 µM: 90%
786-0 [13]; read-out: GI50
  GI50: 1.81 µM
786-0 [13]; [21]
  CC50: 6.44 µM
786-0 [13]; read-out: TGI
  TGI: 3.41 µM
786-0 [13]; read-out: pGI50 (converted)
  GI50: 1.82 µM
786-0 [13]; [22]
  CC50: 6.46 µM
786-0 [13]; read-out: pTGI (converted)
  TGI: 3.39 µM
M14 [14]; read-out: GI50
  GI50: 1.81 µM
M14 [14]; read-out: TGI
  TGI: 3.92 µM
M14 [14]; read-out: pGI50 (converted)
  GI50: 1.82 µM
M14 [14]; read-out: pTGI (converted)
  TGI: 3.89 µM
COLO 205 [15]
  growth at 1 µM: 104%
IGROV-1
  growth at 1 µM: 111%
NCI-H522
  growth at 100 µM: -66%
SK-MEL-5
  growth at 0.01 µM: 95%
BT-549 [16]
  growth at 0.1 µM: 100%
MDA-MB-231; read-out: GI50
  GI50: 1.65 µM
MDA-MB-231; [21]
  CC50: 5.98 µM
MDA-MB-231; read-out: TGI
  TGI: 3.14 µM
MDA-MB-231; read-out: pGI50 (converted)
  GI50: 1.66 µM
MDA-MB-231; [22]
  CC50: 6.03 µM
MDA-MB-231; read-out: pTGI (converted)
  TGI: 3.16 µM
COLO 205 [17]; read-out: GI50
  GI50: 2.11 µM
COLO 205 [17]; read-out: pGI50 (converted)
  GI50: 2.09 µM
CAKI-1; read-out: GI50
  GI50: 2.48 µM
CAKI-1; [21]
  CC50: 56.3 µM
CAKI-1; read-out: TGI
  TGI: 9.08 µM
CAKI-1; read-out: pGI50 (converted)
  GI50: 2.45 µM
CAKI-1; [22]
  CC50: 56.2 µM
CAKI-1; read-out: pTGI (converted)
  TGI: 9.12 µM
HOP-62 [18]
  growth at 100 µM: -37%
HOP-62 [19]
  growth at 0.01 µM: 93%
786-0 [20]
  growth at 0.01 µM: 101%
